Experimental data published in patent publication US12630527B2, “Broad spectrum anti-cancer compounds” (The Regents of the University of California, priority 2019, dated 2026).

Legend:
MV4-11 = assay: High Throughput Screen for growth inhibition (CellTiter-Glo 2.0), MV4-11; type: cell-based; conditions: MV4-11, Leukemia; 3 days with compound; unit not given
Method: (§1) The High Throughput Screen method is described below. The endpoint readout of this assay is based upon quantitation of ATP as an indicator of viable cells.
(§2) Cell lines that have been preserved in liquid nitrogen are thawed and expanded in growth media (see Table 1-3). Once cells have reached expected doubling times, screening begins. Cells are seeded in growth media in black 384-well tissue culture treated plates at 500-1500 cells per well (as noted in Analyzer). Cells are equilibrated in assay plates via centrifugation and placed at 37° C. 5% CO2 for twenty-four hours before treatment. […] Assay plates are incubated with compound for 3 days and are then analysed using CellTiter-Glo 2.0. All data points are collected via automated processes and are subject to quality control and analysed using Horizon's software.
(§3) Growth Inhibition (GI) is utilized as a measure of cell growth. The GI percentages are calculated by applying the following test and equation: If T<V_0: 100*(1−(T−V_0)/V_0) If T≥V_0: 100*(1−(T−V_0)/(V−V_0)) where T is the signal measure for a test article, V is the untreated/vehicle-treated control measure, and Vo is the untreated/vehicle control measure at time zero (also colloquially referred as T0 plates). This formula is derived from the Growth Inhibition calculation used in the National Cancer Institute's NCI-60 high throughput screen. […]

Panc 04 03 = assay: High Throughput Screen for growth inhibition, Panc 04 03; type: cell-based; conditions: Panc 04 03, Pancreatic; 3 days; unit not given
Method: as §1, §2, §3

NCI-H520 = assay: High Throughput Screen for growth inhibition, NCI-H520; type: cell-based; conditions: NCI-H520, LUSC; 3 days; unit not given
Method: as §1, §2, §3

HCT-116 = assay: High Throughput Screen for growth inhibition, HCT-116; type: cell-based; conditions: HCT-116, Colon; 3 days; unit not given
Method: as §1, §2, §3

PECAPJ15 = assay: High Throughput Screen for growth inhibition, PECAPJ15; type: cell-based; conditions: PECAPJ15, Head and Neck; 3 days; unit not given
Method: as §1, §2, §3

Ishikawa = assay: High Throughput Screen for growth inhibition, Ishikawa; type: cell-based; conditions: Endometrial (uterine), 3 days, unit not given
Method: as §1, §2, §3

SW480 = assay: High Throughput Screen for growth inhibition, SW480; type: cell-based; conditions: SW480, Colon; 3 days; unit not given
Method: as §1, §2, §3

MC-F7 = assay: High Throughput Screen for growth inhibition, MC-F7 (MCF7); type: cell-based; conditions: MC-F7, Breast (luminal); 3 days; unit not given
Method: as §1, §2, §3

SUM159PT = assay: High Throughput Screen for growth inhibition, SUM159PT; type: cell-based; conditions: Breast, 3 days, unit not given
Method: as §1, §2, §3

HEC-50B = assay: High Throughput Screen for growth inhibition, HEC-50B; type: cell-based; conditions: Endometrial (uterine), 3 days, unit not given
Method: as §1, §2, §3

A549 = assay: High Throughput Screen for growth inhibition, A549; type: cell-based; conditions: A549, lung adenocarcinoma; 3 days; unit not given
Method: as §1, §2, §3

MOLT-4 = assay: High Throughput Screen for growth inhibition, MOLT-4; type: cell-based; conditions: MOLT-4, Leukemia; 3 days; unit not given
Method: as §1, §2
(§4) Growth Inhibition (GI) is utilized as a measure of cell growth. The GI percentages are calculated by applying the following test and equation: If T<V_0: 100*(1−(T−V_0)/V_0) If T≥V_0: 100*(1−(T−V_0)/(V−V_0)) where T is the signal measure for a test article, V is the untreated/vehicle-treated control measure, and Vo is the untreated/vehicle control measure at time zero (also colloquially referred as T0 plates). This formula is derived from the Growth Inhibition calculation used in the National Cancer Institute's NCI-60 high throughput screen. For the purposes of this report, all data analysis was performed in Growth Inhibition (except where noted).
(§5) A GI of 100% represents complete growth inhibition (cytostasis) and in this case cells treated with compound for 3 days would have the same endpoint reading as TO control cells. A GI of 200% represents complete death (cytotoxicity) of all cells in the culture well and in this case the T reading at 3 days will be lower than the TO control (values near or at zero).
(§6) Horizon also provides Inhibition as a measure of cell viability. Inhibition levels of 0% represent no inhibition of cell growth by treatment. Inhibition of 100% represents no doubling of cell numbers during the treatment window. Both cytostatic and cytotoxic treatments can yield an Inhibition percentage of 100%. Inhibition percentage is calculated as the following: I=1−T/U where T is the treated and U is the untreated/vehicle control.

SKOV-3 = assay: High Throughput Screen for growth inhibition, SKOV-3; type: cell-based; conditions: SKOV-3, Ovarian; 3 days; unit not given
Method: as §1, §2, §3

Kasumi-1 = assay: High Throughput Screen for growth inhibition, Kasumi-1; type: cell-based; conditions: Kasumi-1, Leukemia; 3 days; unit not given
Method: as §1, §2, §3

BICR16 = assay: High Throughput Screen for growth inhibition, BICR16; type: cell-based; conditions: BICR16, Head and Neck; 3 days; unit not given
Method: as §1, §2, §4, §5
(§7) Horizon also provides Inhibition as a measure of cell viability. Inhibition levels of 0% represent no inhibition of cell growth by treatment. […] Inhibition percentage is calculated as the following: I=1−T/U where T is the treated and U is the untreated/vehicle control.

LUDLU-1 = assay: High Throughput Screen for growth inhibition, LUDLU-1; type: cell-based; conditions: LUDLU-1, LUSC; 3 days; unit not given
Method: as §1, §2, §4, §5, §7

AGS = assay: High Throughput Screen for growth inhibition, AGS; type: cell-based; conditions: Gastric, 3 days, unit not given
Method: as §1, §2, §4, §5, §6

Pancreatic = conditions: read-out: EC50 of chemo SOC; cited from earlier work

## CN(Cc1ccc(C(F)(F)F)cc1)c1ccc(CNC2CC2)cn1 [TR-YTH-10]
MV4-11
  Growth Inhibition (GI) Values: 23.158
Panc 04 03
  Growth Inhibition (GI) Values: 28.024
NCI-H520
  Growth Inhibition (GI) Values: 24.266
HCT-116
  Growth Inhibition (GI) Values: 21.453
PECAPJ15
  Growth Inhibition (GI) Values: 44.646
Ishikawa
  Growth Inhibition (GI) Values: 22.531
SW480
  Growth Inhibition (GI) Values: 25.275
MC-F7
  Growth Inhibition (GI) Values: 24.642
SUM159PT
  Growth Inhibition (GI) Values: 56.597
HEC-50B
  Growth Inhibition (GI) Values: 37.217
A549
  Growth Inhibition (GI) Values: 24.437
MOLT-4
  Growth Inhibition (GI) Values: 14.304
SKOV-3
  Growth Inhibition (GI) Values: 25.341
Kasumi-1
  Growth Inhibition (GI) Values: 10.784
BICR16
  Growth Inhibition (GI) Values: 12.966
LUDLU-1
  Growth Inhibition (GI) Values: 20.311
AGS
  Growth Inhibition (GI) Values: 21.842

## Nc1ccn([C@@H]2O[C@H](CO)[C@@H](O)C2(F)F)c(=O)n1 [gemcitabine]
Pancreatic
  EC50: < 1 µM
